Reference: PubChem BioAssay (NCI)
“And” between values parts separate entries of the source, which are not always exact repeats. Identical values can stand only once.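 Following 48 hours of exposure in 96-well plates, responses at five concentrations were used to interpolate endpoints linearly. Abbreviation: GI50, concentration required for 50% inhibition of growth. The concentration for full growth arrest is given as TGI.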

How the values were obtained:
Experiment in all cases: DTP human tumour cell line panel, 48 h
[1] = tested on: HOP-92 NSCLC
[2] = tested on: HL-60(TB) leukemia
[3] = tested on: NCI-H23 lung
[4] = tested on: SF-539 CNS
[5] = tested on: K-562 leukemia
[6] = tested on: HOP-62 NSCLC
[7] = tested on: UACC-257 melanoma
[8] = tested on: SF-295 CNS
[9] = tested on: HT29 colon
[10] = tested on: SNB-75 CNS
[11] = tested on: KM12 colon
[12] = tested on: MDA-N
[13] = tested on: IGROV1 ovarian
[14] = tested on: BT-549 breast
[15] = tested on: HCT-116 colon
[16] = tested on: PC-3 prostate
[17] = tested on: SF-268 CNS
[18] = tested on: SNB-19 CNS
[19] = tested on: NCI-H522 lung
[20] = tested on: CAKI-1 renal
[21] = tested on: NCI/ADR-RES ovarian
[22] = tested on: HCC-2998 colon
[23] = tested on: TK-10 renal
[24] = tested on: UACC-62 melanoma
[25] = tested on: OVCAR-8 ovarian
[26] = tested on: A549 NSCLC
[27] = tested on: UO-31 renal
[28] = tested on: ACHN renal
[29] = tested on: RPMI-8226 leukemia
[30] = tested on: MALME-3M melanoma
[31] = tested on: SK-MEL-5 melanoma
[32] = tested on: MOLT-4 leukemia
[33] = tested on: RXF 393 renal
[34] = tested on: CCRF-CEM leukemia
[35] = tested on: COLO 205 colon
[36] = tested on: OVCAR-5 ovarian
[37] = tested on: OVCAR-3 ovarian
[38] = tested on: U251 CNS
[39] = tested on: HCT-15 colon
[40] = tested on: SN12C renal
[41] = tested on: SK-OV-3 ovarian
[42] = tested on: OVCAR-4 ovarian
[43] = tested on: SW-620 colon
[44] = tested on: MCF7 breast
[45] = tested on: EKVX NSCLC
[46] = tested on: SK-MEL-2 melanoma
[47] = tested on: DU-145 prostate
[48] = tested on: 786-0 renal
[49] = tested on: NCI-H460 lung
[50] = tested on: M14 melanoma
[51] = tested on: SR leukemia
[52] = tested on: SK-MEL-28 melanoma
[53] = tested on: NCI-H226 lung
[54] = tested on: T-47D breast
[55] = tested on: LOX IMVI melanoma
[56] = tested on: MDA-MB-435
[57] = tested on: HS 578T breast
[58] = tested on: A498 renal
[59] = tested on: MDA-MB-231 breast

## N#C/C(=C\c1cc(Br)c(O)c(Br)c1)c1ccccn1
[1]
  TGI: 46.2 µM
[2]
  TGI: > 100 µM
[3]
  TGI: > 100 µM
[4]
  TGI: > 100 µM
[5]
  TGI: > 100 µM
[6]
  TGI: > 100 µM
[7]
  TGI: > 100 µM
[8]
  TGI: > 100 µM
[9]
  TGI: > 100 µM
[10]
  TGI: > 100 µM
[11]
  TGI: > 100 µM
[12]
  TGI: > 100 µM
[13]
  TGI: > 100 µM
[14]
  TGI: > 100 µM
[15]
  TGI: > 100 µM
[16]
  TGI: > 100 µM
[17]
  TGI: > 100 µM
[18]
  TGI: > 100 µM
[19]
  TGI: > 100 µM
[20]
  TGI: > 100 µM
[21]
  TGI: > 100 µM
[22]
  TGI: > 100 µM
[23]
  TGI: > 100 µM
[24]
  TGI: > 100 µM
[25]
  TGI: > 100 µM
[26]
  TGI: > 100 µM
[27]
  TGI: > 100 µM
[28]
  TGI: > 100 µM
[29]
  TGI: > 100 µM
[30]
  TGI: 68.3 µM
[31]
  TGI: > 100 µM
[32]
  TGI: > 100 µM
[33]
  TGI: > 100 µM
[34]
  TGI: > 100 µM
[35]
  TGI: > 100 µM
[36]
  TGI: > 100 µM
[37]
  TGI: > 100 µM
[38]
  TGI: 60 µM
[39]
  TGI: > 100 µM
[40]
  TGI: > 100 µM
[41]
  TGI: > 100 µM
[42]
  TGI: > 100 µM
[43]
  TGI: > 100 µM
[44]
  TGI: > 100 µM
[45]
  TGI: > 100 µM
[46]
  TGI: > 100 µM
[47]
  TGI: > 100 µM
[48]
  TGI: > 100 µM
[49]
  TGI: > 100 µM
[50]
  TGI: > 100 µM
[51]
  TGI: > 100 µM
[52]
  TGI: > 100 µM
[53]
  TGI: > 100 µM

## FC(F)(F)c1ccc(CNc2ccc(Cc3c[nH]c4ncc(Cl)cc34)cn2)cn1
[1]
  GI50: 9.46 µM and 3.77 µM
  TGI: 28.6 µM and > 10 µM
[2]
  GI50: 16.5 µM and > 10 µM
  TGI: 49.4 µM and > 10 µM
[3]
  GI50: 10.3 µM and > 10 µM
  TGI: 32 µM and > 10 µM
[4]
  GI50: 10.6 µM and 8.14 µM
  TGI: 24.4 µM and > 10 µM
[5]
  GI50: 7.27 µM and 8.71 µM
  TGI: 44.8 µM and > 10 µM
[6]
  GI50: 11.4 µM and > 10 µM
  TGI: 29.4 µM and > 10 µM
[7]
  GI50: 11.5 µM and > 10 µM
  TGI: 25.8 µM and > 10 µM
[8]
  GI50: 4.83 µM and 5.24 µM
  TGI: 24.4 µM and > 10 µM
[9]
  GI50: 4.89 µM and > 10 µM
  TGI: 17.3 µM and > 10 µM
[10]
  GI50: 2.2 µM and 2.48 µM
  TGI: 13.6 µM and > 10 µM
[11]
  GI50: 3.53 µM and 3.56 µM
  TGI: 15.3 µM and > 10 µM
[13]
  GI50: 12.2 µM and > 10 µM
  TGI: 40.7 µM and > 10 µM
[14]
  GI50: 14.5 µM and > 10 µM
  TGI: 34.4 µM and > 10 µM
[15]
  GI50: 12.3 µM and > 10 µM
  TGI: 27.4 µM and > 10 µM
[16]
  GI50: 9.65 µM and > 10 µM
  TGI: 34 µM and > 10 µM
[17]
  GI50: 6.25 µM and > 10 µM
  TGI: 29.3 µM and > 10 µM
[18]
  GI50: 10.8 µM and > 10 µM
  TGI: 37.2 µM and > 10 µM
[54]
  GI50: 4.36 µM and 4.5 µM
  TGI: 28.3 µM and > 10 µM
[19]
  GI50: 10.5 µM and > 10 µM
  TGI: 29.3 µM and > 10 µM
[20]
  GI50: 10.3 µM and > 10 µM
  TGI: 30.8 µM and > 10 µM
[21]
  GI50: 7.68 µM and > 10 µM
  TGI: 38.7 µM and > 10 µM
[22]
  GI50: 12.5 µM and > 10 µM
  TGI: 30.3 µM and > 10 µM
[23]
  GI50: 13.5 µM and > 10 µM
  TGI: 36.4 µM and > 10 µM
[24]
  GI50: 8.56 µM
  TGI: 25 µM
[25]
  GI50: 5.34 µM and > 10 µM
  TGI: 28.6 µM and > 10 µM
[26]
  GI50: 10.5 µM and > 10 µM
  TGI: 32.2 µM and > 10 µM
[27]
  GI50: 3.78 µM and 6.32 µM
  TGI: 17.7 µM and > 10 µM
[55]
  GI50: 11.5 µM and > 10 µM
  TGI: 26.3 µM and > 10 µM
[56]
  GI50: 5.92 µM and > 10 µM
  TGI: 22.7 µM and > 10 µM
[28]
  GI50: 13.2 µM and > 10 µM
  TGI: 36 µM and > 10 µM
[29]
  GI50: 5.76 µM and 5.99 µM
  TGI: 44.2 µM and > 10 µM
[30]
  GI50: 12.3 µM and > 10 µM
  TGI: 30.7 µM and > 10 µM
[31]
  GI50: 5.49 µM and 4.3 µM
  TGI: 19.2 µM and > 10 µM
[32]
  GI50: 4.02 µM and 3.28 µM
  TGI: 21.9 µM and > 10 µM
[33]
  GI50: 9.75 µM and > 10 µM
  TGI: 25.8 µM and > 10 µM
[34]
  GI50: 13.9 µM and 6.85 µM
  TGI: 70.6 µM and > 10 µM
[35]
  GI50: 5.58 µM and > 10 µM
  TGI: 20.6 µM and > 10 µM
[36]
  GI50: 23 µM and > 10 µM
  TGI: 50.8 µM and > 10 µM
[37]
  GI50: 14.4 µM and > 10 µM
  TGI: 33.7 µM and > 10 µM
[38]
  GI50: 10.1 µM and > 10 µM
  TGI: 24.8 µM and > 10 µM
[57]
  GI50: 3.33 µM and 2.55 µM
  TGI: 32.2 µM and > 10 µM
[39]
  GI50: 10.1 µM and > 10 µM
  TGI: 27.1 µM and > 10 µM
[40]
  GI50: 13.9 µM and > 10 µM
  TGI: 30.6 µM and > 10 µM
[41]
  GI50: 8.8 µM and > 10 µM
  TGI: 32.5 µM and > 10 µM
[42]
  GI50: 3.6 µM and 6.33 µM
  TGI: 19.2 µM and > 10 µM
[43]
  GI50: 10.6 µM and > 10 µM
  TGI: 26.8 µM and > 10 µM
[44]
  GI50: 6.34 µM and > 10 µM
  TGI: 33.6 µM and > 10 µM
[45]
  GI50: 7.89 µM and > 10 µM
  TGI: 43.5 µM and > 10 µM
[46]
  GI50: 17.6 µM and > 10 µM
  TGI: 37.2 µM and > 10 µM
[47]
  GI50: 12.4 µM and > 10 µM
  TGI: 33.6 µM and > 10 µM
[48]
  GI50: 5.33 µM and 4.19 µM
  TGI: 19.5 µM and > 10 µM
[49]
  GI50: 12.9 µM and > 10 µM
  TGI: 30 µM and > 10 µM
[58]
  GI50: 2.08 µM and 4.41 µM
  TGI: 14 µM and > 10 µM
[50]
  GI50: 4.62 µM and > 10 µM
  TGI: 19.2 µM and > 10 µM
[51]
  GI50: 6.13 µM and 6.63 µM
  TGI: 42.2 µM and > 10 µM
[52]
  GI50: 13.2 µM and > 10 µM
  TGI: 30.2 µM and > 10 µM
[53]
  GI50: 4.91 µM and 3.94 µM
  TGI: 27.2 µM and > 10 µM
[59]
  GI50: 8.7 µM and > 10 µM
  TGI: 26.1 µM and > 10 µM
